Square brackets hold non-standard residues; d marks the D form. Peptide text beside a SMILES is read from it. pGlu = O=C1CC[C@@H](C(=O)O)N1
What was measured:
[1] = Stability in human plasma (LC-MS, residual peptide); format: in vitro ADME; conditions: 5 µM, 37 °C, 10, 60 and 240 minutes, FIG. 1
Description: GV2001 and GV1001 were each added to human plasma and diluted to a concentration of 5 µM, followed by incubation at 37 °C for 10, 60, and 240 minutes with stirring. The reaction mixture was collected and pretreated by plasma protein precipitation using methanol containing 0.1% formic acid. The resulting supernatants were collected and analyzed by LC-MS under the conditions shown in Table 1 below to determine the percentage of residual peptide relative to the initial peptide amount.

[2] = Pharmacokinetic profile after intravenous administration to rats; format: in vivo; conditions: Sprague Dawley rats, FIG. 2
Description: (§1) To determine the pharmacokinetic profile of GV2001 prepared in Example 1, plasma was collected from rats administered with GV2001. The collected plasma was pretreated by protein precipitation using nine times the volume of methanol containing 0.1% formic acid, followed by centrifugation at 16,100 g for 10 minutes.
GV2001 and GV1001 were administered intravenously (IV) to three Sprague Dawley rats in each group. Blood samples were collected at 0.033, 0.083, 0.17, 0.25, 0.5, 1, and 2 hours after administration. The collected blood samples were centrifuged to separate plasma, pretreated, and analyzed using LC-MS. Pharmacokinetic parameters were calculated using the non-compartmental analysis model of the Phoenix WinNonlin (Pharsight, ver. 6.4, USA) program.

[3] = Pharmacokinetic profile after subcutaneous administration to rats; format: in vivo; conditions: subcutaneous (SC), Sprague Dawley rats; FIG. 3
Description: as §1
GV2001 and GV1001 were administered subcutaneously (SC) to three Sprague Dawley rats in each group. Blood samples were collected at 0.033, 0.083, 0.17, 0.25, 0.5, 1, and 2 hours after administration. The collected blood samples were centrifuged to separate plasma, pretreated, and analyzed using LC-MS. Pharmacokinetic parameters were calculated using the non-compartmental analysis model of Phoenix WinNonlin (Pharsight ver. 6.4, USA).

5xFAD mice = assay: Morris Water Maze Test in an Alzheimer's disease mouse model; format: in vivo; conditions: 2 mg/kg subcutaneous, 3 times/week, 8 weeks
Description: An efficacy evaluation of GV2001 based on an Alzheimer's disease animal model was conducted according to Table 3 below. [TABLE 3] [table] 5xFAD mice are a well-established mouse model of Alzheimer's disease, in which amyloid-β is produced in neurons. Amyloid-β accumulation begins at approximately 2 months of age, neuronal damage progresses from around 6 months of age, and impairment in spatial learning ability develops from approximately 9 months of age. The mice were purchased from Jackson Laboratory, and seven-month-old mice obtained through breeding were used in the experiment. […] On day 11, a probe test was performed. […] In addition, the time spent in the target quadrant was increased in the GV1001 and GV2001 groups, confirming improvements in spatial learning ability (FIG. 4C).

amyloid-β = assay: Immunoblot of hippocampal protein samples with anti-amyloid antibody (6E10); format: in vivo; conditions: 5xFAD mice, 2 mg/kg subcutaneous, 3 times/week, 8 weeks, FIG. 5
Description: (§2) An efficacy evaluation of GV2001 based on an Alzheimer's disease animal model was conducted according to Table 3 below.
(§3) 5xFAD mice are a well-established mouse model of Alzheimer's disease, in which amyloid-β is produced in neurons. Amyloid-β accumulation begins at approximately 2 months of age, neuronal damage progresses from around 6 months of age, and impairment in spatial learning ability develops from approximately 9 months of age. The mice were purchased from Jackson Laboratory, and seven-month-old mice obtained through breeding were used in the experiment.
In order to determine amyloid-β levels in the brains of each group of mice, immunoblotting was performed on mouse hippocampal protein samples using an anti-amyloid antibody (6E10).

Aβ1-42 = Aβ1-42 ELISA of cerebral cortex protein samples; format: in vivo; conditions: 5xFAD mice, 2 mg/kg subcutaneous, 3 times/week, 8 weeks, FIG. 6
IL-1β, IL-6, and TNF-α = assay: qRT-PCR of inflammatory cytokine mRNA in hippocampal samples; format: in vivo; conditions: 5xFAD mice, 2 mg/kg subcutaneous, 3 times/week, 8 weeks, FIG. 7
Description: as §2, §3
mRNA levels of cytokines involved in inflammation (IL-1β, IL-6, and TNF-α) were analyzed using qRT-PCR in mouse hippocampal samples.

amyloid-β plaques = assay: Thioflavin-S staining of brain tissue sections; format: in vivo; conditions: 5xFAD mice, 2 mg/kg subcutaneous, 3 times/week, 8 weeks
Description: as §2, §3
(§4) Mouse brain tissue sections were stained with thioflavin-S and anti-amyloid antibody (6E10) to identify amyloid-β plaques and amyloid-β protein, respectively.

amyloid-β protein = assay: Anti-amyloid antibody (6E10) staining of brain tissue sections; format: in vivo; conditions: 5xFAD mice, 2 mg/kg subcutaneous, 3 times/week, 8 weeks; both the cerebral cortex and hippocampus; FIGS. 10 and 11
Description: as §2, §3, §4

microglia = assay: Anti-Iba-1 antibody staining of brain tissue sections (gliosis); format: in vivo; conditions: 5xFAD mice, 2 mg/kg subcutaneous, 3 times/week, 8 weeks, FIGS. 12 and 13
Description: as §2, §3
Mouse brain tissue sections were stained with an anti-Iba-1 antibody, which stains microglia, to analyze the level of gliosis in the mouse brain.

[4] = test system: retinal pigment epithelial cells (ARPE-19); assay: Reactive oxygen species detection with DCF-DA in an H2O2 cell model of age-related macular degeneration; format: cell-based; conditions: ARPE-19, H2O2 (50 µM), FIG. 14
Description: (§5) A cell model of age-related macular degeneration was established by treating the retinal pigment epithelial cell line ARPE-19 with hydrogen peroxide (H2O2) to generate reactive oxygen species.
(§6) The experimental groups were set up according to Table 4 below, and the efficacy of GV2001 was evaluated.
Using 2',7'-dichlorofluorescin diacetate (DCF-DA), a dye for detecting reactive oxygen species, changes in reactive oxygen species levels in retinal pigment epithelial cells (ARPE-19) treated with GV2001 were examined under a fluorescence microscope.

[5] = test system: retinal pigment epithelial cell line ARPE-19; assay: Epithelial-mesenchymal transition (cadherin 1, vimentin; confocal microscope) in an H2O2 cell model of age-related macular degeneration; format: cell-based; conditions: ARPE-19, H2O2 (50 µM), FIG. 15
Description: as §5, §6
The degree of epithelial-mesenchymal transition (EMT), which indicates retinal pigment epithelial cell degeneration, was evaluated by observing changes in cadherin 1, an epithelial cell marker, and vimentin, a mesenchymal cell marker, using a confocal microscope.

[6] = H2O2 for 2 hours then post-treatment for 24 hours, high-dose group
[7] = pretreatment for 2 hours then H2O2 for 24 hours, low-dose group

For `CC[C@H](C)[C@H](NC(=O)[C@H](Cc1ccccc1)NC(=O)[C@H](CCCNC(=N)N)NC(=O)[C@H](CC(C)C)NC(=O)[C@H](CCCNC(=N)N)NC(=O)[C@H](CO)NC(=O)[C@@H](NC(=O)[C@H](CC(C)C)NC(=O)[C@H](CC(C)C)NC(=O)[C@H](C)NC(=O)[C@@H]1CCCN1C(=O)[C@H](CCCNC(=N)N)NC(=O)[C@H](C)NC(=O)[C@H](CCC(=O)O)NC(=O)[C@@H]1CCC(=O)N1)[C@@H](C)O)C(=O)N1CCC[C@H]1C(=O)N[C@@H](CCCCN)C(N)=O` [GV2001] ([pGlu]EARPALLTSRLRFIPK-NH2), the “percentage of residual peptide relative to the peptide amount before reaction” value [1] was “higher at each time point than that of GV1001”, the “AUCt of GV2001 relative to GV1001” value [2] was “more than four times higher” and the AUC(0-t) ([2]; rat, plasma, sampling up to 2 hours) was 107 ng·h/mL. For the same compound, the “in vivo stability (remaining in the body without degradation)” value [3] was “greater in vivo stability than GV1001”, the “latency to locate the hidden platform” value (5xFAD mice; 10-day training period, FIG. 4A) was “marked improvements in latency” and the “number of platform-zone crossings” value (5xFAD mice; probe test on day 11, FIG. 4B) was “exhibited improvements”. The “time spent in the target quadrant” value (5xFAD mice; probe test on day 11, FIG. 4C) was “increased”, the “amyloid-β levels (immunoblot, 6E10)” value (amyloid-β) was “reduction” and the “amyloid-β levels (Aβ1-42 ELISA)” value (Aβ1-42) was “reduced level of amyloid-β protein”. The “mRNA levels of cytokines involved in inflammation (IL-1β, IL-6, and TNF-α)” value (IL-1β, IL-6, and TNF-α) was “greater reduction in cytokine expression compared to the 5xFAD group”, the “amyloid-β plaque deposition (thioflavin-S)” value (amyloid-β plaques; cerebral cortex, FIG. 8) was “reduction in amyloid-β plaque deposition” and the “amyloid-β plaque deposition (thioflavin-S)” value (amyloid-β plaques; hippocampus, FIG. 9) was “substantially reduced plaque deposition”. The “amyloid-β protein levels (6E10 antibody staining)” value (amyloid-β protein) was “more pronounced decrease in amyloid-β protein levels”, the “gliosis levels (microglia staining, anti-Iba-1)” value (microglia) was “more pronounced decrease in gliosis levels” and the “DCF-DA fluorescence expression (reactive oxygen species)” value [4, 6] was “decreased”. The “DCF-DA fluorescence expression (reactive oxygen species)” value [4, 7] was “decreased”, the “progression of EMT (cadherin 1, vimentin)” value [5, 6] was “reduced the progression of EMT” and the “progression of EMT (cadherin 1, vimentin)” value [5, 7] was “reduced the progression of EMT”.

Reference: EP4733310A1, “NOVEL PEPTIDE AND USE THEREOF” (Gemvax & Kael Co., Ltd., priority 2023, dated 2024)
